Reference: patent publication US7960377B2 (priority 2008, dated 2011)
Like-named read-outs stand apart in the source and are kept apart here.

Experiments:
human CB2 receptor = human CB2 receptor (Homo sapiens, UniProt P34972); experiment: cell-based; type: cell-based
human CB1 receptor = human CB1 receptor (Homo sapiens, UniProt P21554); experiment: cell-based
[1] = change in intracellular cAMP, CHO-K1 hCB2 cells, class AR, read-out: EC50 values for human CB2 receptor

Sequence of human CB2 receptor (P34972 whole entry): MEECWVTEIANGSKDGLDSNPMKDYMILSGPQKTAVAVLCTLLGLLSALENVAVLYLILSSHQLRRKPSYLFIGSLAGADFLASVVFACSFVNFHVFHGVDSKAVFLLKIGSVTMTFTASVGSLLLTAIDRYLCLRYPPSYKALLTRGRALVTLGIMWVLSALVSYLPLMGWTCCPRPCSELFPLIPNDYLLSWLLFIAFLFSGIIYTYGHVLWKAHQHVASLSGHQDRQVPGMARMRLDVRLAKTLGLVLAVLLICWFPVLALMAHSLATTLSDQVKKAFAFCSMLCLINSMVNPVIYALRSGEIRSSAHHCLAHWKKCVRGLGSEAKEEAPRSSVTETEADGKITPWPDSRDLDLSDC
Sequence of human CB1 receptor (P21554 whole entry): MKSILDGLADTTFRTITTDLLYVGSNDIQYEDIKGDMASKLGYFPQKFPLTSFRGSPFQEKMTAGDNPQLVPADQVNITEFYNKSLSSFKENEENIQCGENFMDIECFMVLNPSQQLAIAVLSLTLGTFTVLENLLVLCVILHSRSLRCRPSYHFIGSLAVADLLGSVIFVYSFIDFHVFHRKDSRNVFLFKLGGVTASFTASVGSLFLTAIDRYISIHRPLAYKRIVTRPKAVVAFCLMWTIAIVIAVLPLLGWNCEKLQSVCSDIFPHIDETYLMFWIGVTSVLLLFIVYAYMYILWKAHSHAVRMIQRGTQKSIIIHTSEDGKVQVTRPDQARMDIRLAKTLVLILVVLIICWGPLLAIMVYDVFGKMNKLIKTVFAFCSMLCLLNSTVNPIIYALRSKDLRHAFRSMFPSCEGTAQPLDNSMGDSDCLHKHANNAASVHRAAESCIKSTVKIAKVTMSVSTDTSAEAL

| Compound | EC50 (human CB2 receptor; [1]) [µM] | EC50 (human CB1 receptor) [µM] | EC50 (human CB2 receptor) [µM] | inverse agonist mark, human CB2 receptor (human CB2 receptor; asterisk at the compound number) |
| --- | --- | --- | --- | --- |
| CCN(CC)C(=O)c1cnc2c(c1)N(S(=O)(=O)c1cccnc1)CCO2 [Example 18, N,N-diethyl-1-(pyridin-3-ylsulfonyl)-2,3-dihydro-1H-pyrido[2,3-b][1,4]oxazine-7-carboxamide] | > 30 | > 30 |  |  |
| COCCCNC(=O)c1cnc2c(c1)N(S(=O)(=O)c1cccnc1)CCO2 [Example 19, N-(3-methoxypropyl)-1-(pyridin-3-ylsulfonyl)-2,3-dihydro-1H-pyrido[2,3-b][1,4]oxazine-7-carboxamide] | > 30 | > 30 |  |  |
| Cn1cnc(S(=O)(=O)N2CCOc3ncc(C(=O)NC(C)(C)C)cc32)c1 [Example 30, N-tert-butyl-1-(1-methyl-1H-imidazol-4-ylsulfonyl)-2,3-dihydro-1H-pyrido-[2,3-b][1,4]oxazine-7-carboxamide] | > 30 | > 30 |  |  |
| Cn1cnc(S(=O)(=O)N2CCOc3ncc(C(=O)NC4CCCC4)cc32)c1 [Example 31, N-cyclopentyl-1-(1-methyl-1H-imidazol-4-ylsulfonyl)-2,3-dihydro-1H-pyrido[2,3-b][1,4] oxazine-7-carboxamide] | > 30 | > 30 |  |  |
| CCN(CCN(C)C)C(=O)c1cnc2c(c1)N(S(=O)(=O)c1ccc(C(F)(F)F)cc1)CCO2 [Example 38, N-(2-(dimethylamino)-ethyl)-N-ethyl-1-(4-(trifluoromethyl)phenylsulf-onyl)-2,3-dihydro-1H-pyrido[2,3-b][1,4]oxazine-7-carboxamide] | > 30 | > 30 |  |  |
| CC(C)(C)NC(=O)c1cnc2c(c1)N(S(=O)(=O)c1cc(Cl)cc(Cl)c1)CCO2 [Example 53, N-tert-butyl-1-(3,5-dichlorophenylsulfonyl)-2,3-dihydro-1H-pyrido[2,3-b][1,4]oxazine-7-carboxamide] |  | > 30 | > 30 |  |
| CC(C)(C)NC(=O)c1cnc2c(c1)N(S(=O)(=O)Cc1ccc(C(F)(F)F)cc1)CCO2 [Example 63, N-tert-butyl-1-(4-(trifluoromethyl)benzylsulf-onyl)-2,3-dihydro-1H-pyrido[2,3-b][1,4]oxazine-7-carboxamide] | > 30 | > 30 |  |  |
| CCS(=O)(=O)N1CCOc2ncc(C(=O)NC(C)(C)C)cc21 [Example 80, N-tert-butyl-1-(ethylsulfonyl)-2,3-dihydro-1H-pyrido[2,3-b][1,4]oxazine-7-carboxamide] |  | > 30 | > 30 |  |
| Cc1cccc(CS(=O)(=O)N2CCOc3ncc(C(=O)NC(C)(C)C)cc32)c1 [Example 81, N-tert-butyl-1-(3-methylbenzylsulfonyl)-2,3-dihydro-1H-pyrido[2,3-b][1,4]oxazine-7-carboxamide] | > 30 | > 30 |  |  |
| CC(C)(C)NC(=O)c1cnc2c(c1)N(S(=O)(=O)c1ccccc1OC(F)(F)F)CCO2 [Example 84, N-tert-butyl-1-(2-(trifluoromethoxy)phenyl-sulfonyl)-2,3-dihydro-1H-pyrido[2,3-b][1,4]oxazine-7-carboxamide] | > 30 | > 30 |  |  |
| CC(C)(CO)NC(=O)c1cnc2c(c1)N(S(=O)(=O)N1CC(F)(F)C1)CCO2 [Example 195, 1-(3,3-difluoroazetidin-1-ylsulfonyl)-N-(1-hydroxy-2-methylpropan-2-yl)-2,3-dihydro-1H-pyrido[2,3-b][1,4]oxazine-7-carboxamide] |  |  | > 30 |  |
| O=C(NC1CCCC1)c1noc(-c2cnc3c(c2)N(S(=O)(=O)c2ccc(F)cc2)CCO3)n1 [Example 213, N-cyclopentyl-5-(1-(4-fluorophenylsulfonyl)-2,3-dihydro-1H-pyrido[2,3-b][1,4]oxazin-7-yl)-1,2,4-oxadiazole-3-carboxamide] |  |  |  | 175, 178, 179, 181, 198, 204, 205, 213*, 214, 215, 216, 219, 220, |
| O=S(=O)(c1ccc(C(F)(F)F)cc1)N1CCOc2ncc(-c3ncc(-c4ccccc4)[nH]3)cc21 [Example 226, 7-(5-phenyl-1H-imidazol-2-yl)-1-(4-(trifluoromethyl)phenylsulfonyl)-2,3-dihydro-1H-pyrido[2,3-b][1,4]oxazine] | > 30 |  |  |  |
